The text below walks through data of patent US8026359B2, “Fungicidal heterocyclic amines” (E.I. du Pont de Nemours and Company, priority 2007, dated 2011).

Marks after values point to notes of the source that are not given here.

What all share (assay type): in vivo
One assay deals with Magnaporthe grisea. The note with it: 100 ppm (100 g/ha, 1000 L/ha), rice seedlings, inoculated the following day; 100 = 100% disease control, 0 = no control relative to controls.
Another assay relates to Venturia inaequalis. As to the kind of experiment: Test O: apple scab, preventive spray on apple seedlings. The note with it: 100 ppm (100 g/ha, 1000 L/ha), inoculated the following day, 100 = 100% disease control, 0 = no control relative to controls. An excerpt: (§1) General protocol for preparing test suspensions for Tests A-R: The test compounds were first dissolved in acetone in an amount equal to 3% of the final volume and then suspended at the desired concentration (in ppm) in acetone and purified water (50/50 mix) containing 250 ppm of the surfactant Trem® 014 (polyhydric alcohol esters). The resulting test suspensions were then used in tests A-R. In Tests A-M, compounds were sprayed as a 200 ppm test suspension (equivalent to a rate of 500 g/ha) or as a 40 ppm test suspension to the point of runoff on the test plants. In Tests N-R, compounds were sprayed as a 100 g/ha test suspension (equivalent to a rate of 100 ppm) on the test plants at an application volume of 1000 L/ha. The test suspension was sprayed on apple seedlings.

Assay [1] deals with Erysiphe graminis f. sp. tritici. The experiment in a line: Test A: wheat powdery mildew, preventive spray on wheat seedlings. In outline: (§2)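 Two spray concentrations are used, 40 ppm and 200 ppm, the latter matching a rate of 500 g/ha, applied until run-off. The carrier is half acetone, half purified water with 250 ppm surfactant, and acetone for initial dissolution makes up 3% of the volume.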

Another assay relates to Alternaria solani. As to the kind of experiment: Test H: tomato early blight, preventive spray on seedlings. The method, boiled down: as §2
In the next assay the test system is Rhizoctonia oryzae. As to the kind of experiment: Test P: rice sheath blight, preventive spray on rice seedlings. Conditions: 100 ppm (100 g/ha, 1000 L/ha), inoculated the following day, 100 = 100% disease control, 0 = no control relative to controls.
Text: as §1, with “rice” for “apple”

A further assay has as its system Septoria tritici. As to the kind of experiment: Test D: wheat leaf blotch, preventive spray on wheat seedlings. Conditions: 200 ppm, 100 = 100% disease control, 0 = no control relative to controls; for pest or weed control at 200 ppm: Zymoseptoria tritici, 504 h, read-out: Test D disease control rating. In outline: as §2
In assay [2] the test system is Colletotrichum orbiculare. The experiment in a line: Test I: cucumber Colletotrichum anthracnose, preventive spray on cucumber seedlings. The note with it: 100 = 100% disease control, 0 = no control relative to controls; for pest or weed control at 200 ppm: Colletotrichum orbiculare, 144 h, read-out: Test I disease control rating; for Test I disease control rating: 200 ppm. The method, boiled down:
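Compound was dissolved in acetone (3% of final volume), then suspended in 50/50 acetone/water with 250 ppm Trem 014 surfactant. Cucumber seedlings were sprayed to run-off as a preventive treatment at 200 ppm (equivalent to 500 g/ha) or 40 ppm.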

For a further assay, the system named is Plasmopara viticola. The experiment in a line: Test R: grape downy mildew, preventive spray on grape seedlings. Conditions: 100 ppm (100 g/ha, 1000 L/ha), inoculated the following day, 100 = 100% disease control, 0 = no control relative to controls.
Text: as §1, with “grape” for “apple”, “seedlings. The following day the seedlings were inoculated with a spore suspension of Plasmopara viticola (the causal agent of grape downy mildew) and incubated in a saturated atmosphere at 20° C. for 24 h, then moved to a growth chamber at 20° C. for 7 days, after which time the test units were placed back into a saturated atmosphere at 20° C. for 24 h. Upon removal, disease ratings were made.” for “seedlings.”

In assay [3] the test system is Puccinia recondita f. sp. tritici. The experiment in a line: Test B: wheat leaf rust, preventive spray on wheat seedlings. Conditions: 200 ppm, 100 = 100% disease control, 0 = no control relative to controls; for pest or weed control at 200 ppm: Puccinia recondita, 192 h, read-out: Test B disease control rating. The method, boiled down: as §2
In the next assay the test system is Fusarium graminearum. As to the kind of experiment: whole plant or invertebrate. Conditions: for pest or weed control at 200 ppm: Fusarium graminearum, in Triticum aestivum, 192 h, read-out: Test E disease control rating; for Test E disease control rating: 200 ppm, 100 = 100% disease control, 0 = no control relative to controls.
The next assay deals with Septoria nodorum. As to the kind of experiment: Test C: wheat glume blotch, preventive spray on wheat seedlings. The note with it: 200 ppm, 100 = 100% disease control, 0 = no control relative to controls; for pest or weed control at 200 ppm: Parastagonospora nodorum, 216 h, read-out: Test C disease control rating. The method, boiled down:
as §2

A further assay relates to Uncinula necator. The experiment in a line: Test N: grape powdery mildew, preventive spray on grape seedlings. Conditions: 100 ppm (100 g/ha, 1000 L/ha), inoculated the following day, 100 = 100% disease control, 0 = no control relative to controls.
Text: as §1, with “grape” for “apple”

In a further assay the test system is Botrytis cinerea. As to the kind of experiment: Test F: tomato Botrytis, preventive spray on tomato seedlings. In outline: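 Compounds dissolved in acetone (3% of final volume), suspended in 50/50 acetone/water with 250 ppm Trem® 014. Sprayed preventively to run-off on tomato seedlings at 200 ppm (500 g/ha) or 40 ppm.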
Where [4] appears, read: 200 ppm, 100 = 100% disease control, 0 = no control relative to controls.

As for `COCC(C)Nc1nccc(-c2ncnc(Nc3cccc(F)c3)n2)n1` (stereo not shown) [Compound 2, N-(3-fluorophenyl)-4-[2-[(2-methoxy-1-methylethyl)amino]-4-pyrimidinyl]-1,3,5-triazin-2-amine], in the assay on Magnaporthe grisea, the “Test Q disease control rating” value amounted to 93%. The “Test O disease control rating” value with Venturia inaequalis is 95%. Also, the pest or weed control at 200 ppm in assay [1] (Blumeria graminis, 192 h, 200 ppm, 100 = 100% disease control, 0 = no control relative to controls, read-out: Test A disease control rating) came out at 94%; in the assay on Alternaria solani (Alternaria solani, 168 h, 200 ppm, 100 = 100% disease control, 0 = no control relative to controls, read-out: Test H disease control rating), 97%; in the assay on Septoria tritici, 71%; in assay [2], 99%; in [3], 99%; in the assay on Fusarium graminearum, 95%. Further, the pest or weed control at 200 ppm came to 99% in the assay with Septoria nodorum and 93% with Botrytis cinerea (Botrytis cinerea, 120 h, 200 ppm, 100 = 100% disease control, 0 = no control relative to controls, read-out: Test F disease control rating). The “Test P disease control rating” value in the assay on Rhizoctonia oryzae amounted to 100%. Moreover, in the assay with Plasmopara viticola, the “Test R disease control rating” value is 60%. For the same compound, the “Test N disease control rating” value in the assay with Uncinula necator came to 89%.
In the case of `COC[C@H](C)Nc1nccc(-c2ncnc(Nc3cccc(C#N)c3)n2)n1` [Compound 18], the “Test Q disease control rating” value in the assay on Magnaporthe grisea was determined as 100%. Further, in the assay on Venturia inaequalis, the “Test O disease control rating” value came to 83%. Besides, the “Test H disease control rating” value with Alternaria solani (40 ppm (marked *)) is recorded as 89* %. The “Test P disease control rating” value in the assay with Rhizoctonia oryzae is listed as 100%. Besides, the “Test D disease control rating” value in the assay on Septoria tritici stood at 0%. Besides, in assay [2], the “Test I disease control rating” value was 99%. Moreover, the “Test R disease control rating” value with Plasmopara viticola was determined as 86%. The “Test B disease control rating” value in assay [3] worked out at 100%. In the assay with Fusarium graminearum, the “Test E disease control rating” value is listed as 85%. Besides, the “Test C disease control rating” value in the assay on Septoria nodorum amounted to 100%. In the assay with Uncinula necator, the “Test N disease control rating” value is listed as 99%. Besides, the “Test F disease control rating” value in the assay with Botrytis cinerea (setting [4]) came to 95%.
Turning to `COC[C@H](C)Nc1nccc(-c2ncnc(Nc3cc(F)cc(F)c3)n2)n1` [Compound 22, N-(3,5-difluorophenyl)-4-[2-[[(1S)-2-methoxy-1-methylethyl]amino]-4-pyrimidinyl]-1,3,5-triazin-2-amine], the “Test Q disease control rating” value in the assay on Magnaporthe grisea came to 100%. Further, the “Test O disease control rating” value in the assay with Venturia inaequalis turned out to be 99%. For the same compound, the pest or weed control at 40 ppm in assay [1] (Blumeria graminis, 192 h, 40 ppm (marked *), read-out: Test A disease control rating) came out at 69%; in the assay on Alternaria solani (Alternaria solani, 168 h, 40 ppm (marked *), read-out: Test H disease control rating), 100%; in the assay on Botrytis cinerea (Botrytis cinerea, 120 h, 40 ppm (marked *), read-out: Test F disease control rating), 99%. In addition, the “Test P disease control rating” value in the assay on Rhizoctonia oryzae stood at 100%. Also, the pest or weed control at 200 ppm amounted to 36% with Septoria tritici; 100% in [2]; 99% in assay [3]; 99% in the assay on Fusarium graminearum; 100% with Septoria nodorum. Further, the “Test R disease control rating” value in the assay with Plasmopara viticola was 83%. The “Test N disease control rating” value in the assay on Uncinula necator worked out at 99%.
In the case of `COC[C@H](C)Nc1nccc(-c2ncnc(Nc3ccc(F)c(Cl)c3)n2)n1` [Compound 23], in the assay with Venturia inaequalis, the “Test O disease control rating” value stood at 99%. Also, in [1] (40 ppm (marked *)), the “Test A disease control rating” value is given as 0* %. Moreover, the “Test H disease control rating” value with Alternaria solani (40 ppm (marked *)) is on record as 100* %. Moreover, the “Test D disease control rating” value in the assay on Septoria tritici is 13%. For the same compound, in [2], the “Test I disease control rating” value was found to be 99%. Also, the “Test R disease control rating” value in the assay on Plasmopara viticola is 30%. In [3], the “Test B disease control rating” value came to 98%. Moreover, the “Test E disease control rating” value with Fusarium graminearum came out at 98%. In the assay on Septoria nodorum, the “Test C disease control rating” value is recorded as 100%. Besides, in the assay on Uncinula necator, the “Test N disease control rating” value is listed as 61%. Also, in the assay with Botrytis cinerea (setting [4]), the “Test F disease control rating” value is recorded as 90%.
As for `COC[C@H](C)Nc1nccc(-c2ccnc(Nc3cccc(F)c3)c2)n1` [Compound 56], in the assay with Magnaporthe grisea, the “Test Q disease control rating” value was found to be 98%. Moreover, the “Test O disease control rating” value with Venturia inaequalis worked out at 75%. Further, the “Test A disease control rating” value in [1] (setting [4]) was 84%. For the same compound, in the assay on Rhizoctonia oryzae, the “Test P disease control rating” value came out at 100%. In addition, the “Test D disease control rating” value with Septoria tritici stood at 82%. Further, the “Test I disease control rating” value in assay [2] is given as 90%. In addition, in the assay on Plasmopara viticola, the “Test R disease control rating” value is 97%. Further, the “Test B disease control rating” value in [3] was 99%. The “Test E disease control rating” value in the assay with Fusarium graminearum is 90%. The “Test C disease control rating” value with Septoria nodorum is 99%. Besides, in the assay with Uncinula necator, the “Test N disease control rating” value is on record as 64%. Moreover, in the assay with Botrytis cinerea (setting [4]), the “Test F disease control rating” value is 99%.
